According to patent publication US6787564B2, “Optically active clausenamides, process of the preparation thereof, pharmaceutical composition containing the same and their medical use” (Institute of Materia Medica, Chinese Academy of Medical …, priority 2002, dated 2004):

Assays:
mitochondrial complex I = mitochondrial complex I activity in Bax α high expressing PC12 cells; type: cell-based; settings: without drug 1.44±0.16
Description: (§1) Obviously, the increased mitochondrial membrane potential is considered to be one of the antiapoptotic mechanisms of (−) Clausenamide. The increased mitochondrial complex I and complex IV activity may account for the increased mitochondrial membrane potential. The Bax α protein may induce apoptosis by affecting enzyme activities of the mitochondrial electron transfer chain. And the mitochondrial complex I and complex IV could be the targeting points of the Bax α protein.

calpain = calpain activity in the cortical and hippocampal tissue; type: in vivo, rats; settings: without HFS, Nimodipine 2 nmol, mean ± S.D., n = 5
Description: The rats were anaesthetized with urethane carbonate.

Ach, ChAT = test: Ach content and ChAT activity in cortex, hippocampus and striatum; settings: in vivo
[1] = system: Bax α high expressing PC12 cells; test: mitochondrial membrane potential in 6-OHDA treated Bax α high expressing PC12 cells; type: cell-based; settings: 6-OHDA 12 hours, without drug 24.6
Description: as §1

calcineurin = calcineurin activity in the cortical and hippocampal tissue; settings: without HFS; Nimodipine 2 nmol; mean ± S.D., n = 5; control 7.8 ± 0.6
Description: The rats were anaesthetized with urethane carbonate. The recording and stimulating electrodes were made from Teflon coated stainless steel wires. The bipolar stimulating electrode was sterotaxically placed in the entorhinal cortex to stimulate the perforant path, and the evoked potential was extracellular recorded from the dentate gyrus granule cell layer of ipsilateral. The population spike (PS) is served as an indication of granule cell's excitation. Long term potentiation (LTP) was induced by a 200 Hz high frequency stimulation 5×single square wave pulses of 0.2 ms duration. The drug or vehicle (DMSO) were injected into lateral cerebral ventricle in a 5 μl volume over a 5 min period via a Hamilton syringe.

animals [2] = test: memory in water maze test; type: in vivo; settings: 10 mg/kg
Description: (§2) This invention used one trial avoidance task—step-down and step-through tests and water maze to compare the improving memorial effects of (±), (−) clausenamide. The drugs were given orally once to animals before experiment in step-down and step-through tests. The water maze test lasted for 5 days in succession. The results were expressed as latency and errors number.

BDNF = BDNF protein expression in cortical neurons and hippocampal pyramide cells; type: in vivo, rats; settings: 8, 40 mg·kg^−1 orally daily for 10 days
[3] = system: animals with anisodine-induced memory impairment; test: step-down test, memory impairment induced by anisodine; type: in vivo
Description: as §2

[4] = system: animals with anisodine-induced memory impairment; test: step-through test, memory impairment induced by anisodine; type: in vivo
Description: as §2

[5] = system: animals with anisodine-induced memory impairment; test: memory impairment induced by anisodine in water maze test; type: in vivo; settings: anisodine + drug 10 mg/kg
Description: as §2

weaning mice = test: synapses density in weaning mice; settings: mouse, in vivo
[6] = system: dentate gyrus granule cells; test: basal synaptic transmission / LTP in dentate gyrus of hippocampus in anesthetized rats (population spike amplitude); type: in vivo
Description: Drugs or vehicle injection were delivered via cannula in the lateral cerebral ventricle at final concentration of 2×10^−6 mol/L. The population spike (PS) amplitude was employed as an indication of the level of excitation of the granular cell population in the dentate gyrus. To obtain this measurement, an evoked response was generated in the dentate gyrus granule cell layer by stimulating the pp at low freguency (0.033 Hz) with. single square wave pulses of 0.15 ms duration The LTP formation must accord the following creteria: The PS amplitude increased is over 30% and this high PS amplitude can persist for 40 min.

zif/268 = test: protein biosyntheses of mice brain and zif/268 expression; settings: mouse, in vivo
rats = test: mossy fiber sprouting in fascia dentata and hippocampal CA3 region; type: in vivo; settings: 8 and 40 mg·kg^−1 orally daily for 10 days; adult rat
Description: 2. […] This is morphological basis for levoclausenamide to incnease synaptic transmission (see FIGS. 1 and 2).

apoptosis = test: three apoptotic models; type: cell-based; settings: 10^−7−10^−5 mol/l
potassium channel = potassium channel blockade (nootropic mechanism)
[7] = system: Bax α high expressing PC12 cells; test: mitochondrial GSH and MDA level in 6-OHDA treated Bax α high expressing PC12 cells; type: cell-based; settings: for mitochondrial GSH level: without drug 9.84±1.20; for mitochondrial MDA level: without drug 2.46±0.19
Description: It means that Bax α expression may promote the production of reactive oxygen species. The antiapoptotic effect of (−) clausenamide may be attributed to its reduction of the mitochondrial MDA level and the increase of mitochondrial GSH level. The increased mitochondrial GSH may be the result of the increased Bcl-2 level. As Bcl-2 itself is not an antioxidant, it may promote the closing of PT pores, and form heterodimers with Bax α and protect the mitochondria from injury and thus reduce the production of reactive oxygen, species.

[8] = system: β-AP (25-35)-treated rats; test: one trial passive avoidance of β-AP (25-35)-treated rats; type: in vivo; settings: n = 9
animals [9] = test: nootropic action overall: step-down, step-through and water maze tests; type: in vivo; settings: in vivo
Procedure: This invention used one trial avoidance task—step-down and step-through tests and water maze to compare the improving memorial effects of (±), (−) clausenamide.
The drugs were given orally once to animals before experiment in step-down and step-through tests. The water maze test lasted for 5 days in succession. The results were expressed as latency and errors number.
The effective dose of piracetam was 500 mg.kg^−1.

mitochondrial complex IV = mitochondrial complex IV activity in Bax α high expressing PC12 cells; type: cell-based; settings: without drug 0.09±0.019
Description: as §1

[10] = anisodine + drug 10 mg/kg (Tab 7)
[11] = anisodine + drug 50 mg/kg (Tab 7)

CN1C(=O)[C@@H](O)[C@H](c2ccccc2)[C@@H]1[C@@H](O)c1ccccc1 [(−)clausenamide, 3S, 4R, 5R, 6S (−) Levoclausenamide]
mitochondrial complex I activity (mitochondrial complex I; 10^−5M): 2.16±0.2 umol/mg pro/min
mitochondrial complex I activity (mitochondrial complex I; 10^−7M): 1.57±0.12 umol/mg pro/min
calpain activity, Cortical tissue (calpain; control 1.5 ± 0.2): 2.6 ± 0.5 ΔA595nm/hr/mg protein
calpain activity, Hippocampal tissue (calpain; control 1.7 ± 0.5): 2.7 ± 0.8 ΔA595nm/hr/mg protein
Ach content in cortex, hippocampus and striatum (Ach, ChAT): increased
ChAT activity in cortex, hippocampus and striatum (Ach, ChAT): increased
mitochondrial membrane potential ([1]; 10^−6M): 56.0±5.0
mitochondrial membrane potential ([1]; 10^−7M): 30.7±3.3
calcineurin activity, Hippocampal tissue (calcineurin): 10.4 ± 0.5 (μmol Pi)/hr/μ g protein
Lalencies reaching platform, 3rd day (animals [2]): 17.4 ± 10.9 s
Lalencies reaching platform, 4th day (animals [2]): 12.1 ± 6.9 s
Lalencies reaching platform, Second day (animals [2]): 28.7 ± 35.2 s
BDNF protein expression in the cortical neurons and pyramide cells in the hippocampus (BDNF): dose-dependently increased
Error number, Step-down ([3]; 5 mg/kg oral once): 0.5 ± 0.5
Latencies, Step-down ([3]; 5 mg/kg oral once): 186 ± 129 s
Error number, Step-down ([3]; 10 mg/kg oral once): 0.2 ± 0.4
Latencies, Step-down ([3]; 10 mg/kg oral once): 296 ± 97 s
Error number, Step-down ([3]; 50 mg/kg oral once): 0.2 ± 0.4
Latencies, Step-down ([3]; 50 mg/kg oral once): 265 ± 91 s
Latencies, Step-through ([4]; 5 mg/kg oral once): 47.9 ± 90 s
Error number, Step-through ([4]; 5 mg/kg oral once, 0.9% Nacl + anisodine 12.7 ± 4.6): 5.7 ± 4.7
Error number, Step-through ([4]; 10 mg/kg oral once (Table 4)): 6.5 ± 5.0
Latencies, Step-through ([4]; 10 mg/kg oral once (Table 4)): 59.4 ± 91 s
Error number, Step-through ([4]; 50 mg/kg oral once (Table 4)): 7.1 ± 3.6
Latencies, Step-through ([4]; 50 mg/kg oral once (Table 4)): 17.1 ± 12.4 s
Error number [4, 10]: 6.7 ± 11.0
Latencies [4, 10]: 138.2 ± 86.7 s
Error number [4, 11]: 5.4 ± 4.1
Latencies [4, 11]: 140.6 ± 96.4 s
Errors number [5]: 9.4 ± 5.9
synapses density in weaning mice (weaning mice): increased synapses density
increase of PS amplitude in comparison with vehicle group ([6]; 30-60 min after drug administration): 38.9-63.4%
LTP formation (PS amplitude increase over 30% persisting 40 min) ([6]; (−) at 2×10^−6 mol/L, (±) up to 5 times that): induce LTP formation
PS % at 15′, in comparison with before drug ([6]; icv, 2×10^−6 mol/L): 19.8%
PS % at 15′, in comparison with control (vehicle) group ([6]; icv, 2×10^−6 mol/L): 10.0%
PS % at 30′, in comparison with before drug ([6]; icv, 2×10^−6 mol/L): 48.5%
PS % at 30′, in comparison with control (vehicle) group ([6]; icv, 2×10^−6 mol/L): 38.9%
PS % at 45′, in comparison with before drug ([6]; icv, 2×10^−6 mol/L): 66.3%
PS % at 45′, in comparison with control (vehicle) group ([6]; icv, 2×10^−6 mol/L): 52.7%
PS % at 60′, in comparison with before drug ([6]; icv, 2×10^−6 mol/L): 81.2%
PS % at 60′, in comparison with control (vehicle) group ([6]; icv, 2×10^−6 mol/L): 63.4%
PS amplitude 30′ after drug ([6]; icv, 2×10^−6 mol/L, control 108 ± 7): 150 ± 11
PS amplitude 45′ after drug ([6]; icv, 2×10^−6 mol/L, control 110 ± 10): 168 ± 25
PS amplitude 60′ after drug ([6]; icv, 2×10^−6 mol/L, control 112 ± 7): 183 ± 30
PS amplitude 15′ after drug ([6]; icv, final concentration 2×10^−6 mol/L, control 110 ± 9): 121 ± 9
protein biosyntheses of mice brain (zif/268): increased
zif/268 mRNA and protein expression (zif/268): promoted
mossy fiber sprouting in the fascia dentate and stratum lucidum (rats): dose-dependently increased
apoptosis in three apoptotic models (apoptosis): inhibited apoptosis significantly
potassium channel action (potassium channel): potassium channel blocker
mitochondrial GSH level ([7]; 10^−5M): 17.78±1.04 nmol/mg pro
mitochondrial MDA level ([7]; 10^−6M): 1.54±0.13 nmol/mg pro
mitochondrial GSH level ([7]; 10^−6M): 15.10±0.95 nmol/mg pro
mitochondrial GSH level ([7]; 10^−7M, 6-OHDA treated): 12.29±0.99 nmol/mg pro
mitochondrial MDA level ([7]; 10^−7M): 1.76±0.17 nmol/mg pro
Number of error, Acquisition ([8]; β-AP-treated + drug 8 mg/kg): 0.7 ± 0.24
Number of error, Training ([8]; β-AP-treated + drug 8 mg/kg): 3.1 ± 1.22
Number of error, Acquisition ([8]; β-AP-treated + drug 40 mg/kg): 1.1 ± 0.27
Number of error, Training ([8]; β-AP-treated + drug 40 mg/kg): 4.4 ± 0.87
nootropic action, times more potent than (±) clausenamide (animals [9]): 5-10 times
nootropic action, times more potent than piracetam (animals [9]): 50-100 times
mitochondrial complex IV activity (mitochondrial complex IV; 10^−5M): 0.18±0.01 umol/mg pro/min
mitochondrial complex IV activity (mitochondrial complex IV; 10^−6M): 0.15±0.02 umol/mg pro/min
mitochondrial complex IV activity (mitochondrial complex IV; 10^−7M): 0.12±0.015 umol/mg pro/min
